From the METLIN SMRT retention time set (Domingo-Almenara et al. 2019)

Assay: gradient 5% acetonitrile 3 min, to 50% in 2 min, to 85% in 15 min, held 3 min, 100 µL/min
Conditions: column: Zorbax Extend-C18 2.1 x 50 mm; eluents: water / acetonitrile, 0.1% formic acid
Procedure, shortened: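 Retention times come from adduct peaks that were picked computationally and then checked by hand. The standards, pure and pooled in mixtures of ~100 molecules, were run on a Zorbax Extend-C18 column (2.1 × 50 mm, 1.8 μm) at 100 μL/min with water and acetonitrile, each with 0.1% formic acid. Detection was by quadrupole time-of-flight mass spectrometry in positive and negative ionization mode, with a dead volume of 40 μL and a dwell volume of 900 μL.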

Row | Compound | RP-LC retention time
1 | Cc1cc(C)cc(-n2ccc(=O)c(-c3nc(-c4ccc5c(c4)OCO5)no3)n2)c1 | 996 s
2 | O=S(=O)(c1ccc(-c2csc(Nc3ccc(Cl)cc3)n2)cc1)N1CCOCC1 | 1080 s
3 | COc1cccc(-n2c(=O)c(C(=O)NCc3cc(F)cc(F)c3)c(O)c3cccnc32)c1 | 1170 s
4 | CCc1nc(N2CCCC2=O)sc1C(=O)Nc1ccc(OC)c(Cl)c1 | 905 s
5 | Cc1nnc(N2CCCC(C(=O)NCc3ccco3)C2)c2nn(-c3ccccc3)c(C)c12 (stereo unspecified) | 680 s
6 | CCC(=O)Nc1nc(-c2ccc3c(c2)N(C)C(=O)C(C)O3)cs1 (stereo unspecified) | 801 s
7 | CN(CCNC(=O)c1ccc2c(c1)NC(=O)C1CCCCN21)Cc1ccccc1 (stereo unspecified) | 630 s
8 | CCCn1cc(S(=O)(=O)Nc2cc(F)ccc2C)c2cccnc21 | 926 s
9 | Cn1nnc2cc(-c3noc(CNC(=O)c4ccccc4)n3)ccc21 | 708 s
10 | CCOc1ccccc1C(=O)NC1(c2nc(-c3cccnc3)no2)CCCCC1 | 1050 s
11 | Cc1sc(-c2ccn[nH]2)cc1NC(=O)c1cccc(N(C)C)c1 | 995 s
12 | COc1ccc(-n2ccc(=O)c(-c3nc(-c4cc(OC)cc(OC)c4)no3)n2)cc1 | 887 s
13 | Cc1ccc(-c2noc(CN3C(=O)COc4cc(Cl)ccc43)n2)cc1C | 1200 s
14 | CCC(C)C(NC(=O)CCc1ccc(OC)cc1)C(=O)Nc1nc2ccccc2[nH]1 (stereo unspecified) | 734 s
15 | Cc1ccc(C)c(OCc2nc(CC(=O)Nc3nc(-c4ccc(F)cc4)c(C)s3)cs2)c1 | 1310 s
16 | O=C(Nc1cnc2ccccc2c1)N(c1ccccc1)c1ccccc1 | 754 s
17 | CCN1C(=O)COc2ccc(-c3csc(NC(=O)c4cccc(C)c4)n3)cc21 | 1050 s
18 | CC(=O)c1ccc(NC(=O)c2nc(N3CCCC3)c3c(C)cc(C)nc3n2)cc1 | 646 s
19 | CCn1c(CCc2ccccc2NS(=O)(=O)c2cccc3nsnc23)nc2ccccc21 | 713 s
20 | O=C(Cn1nc2c3cc(Cl)ccc3ncn2c1=O)Nc1ccccc1 | 718 s
21 | Cc1ccc2nsnc2c1S(=O)(=O)NCCc1c(C)[nH]c2ccccc12 | 948 s
22 | Cc1ccc(C)c(NC(=O)c2cc(C)nn2-c2ccccc2)c1 | 916 s

Continued, values first:

Row | RP-LC retention time | Compound
23 | 738 s | O=C(C1CCN(c2nnc(-n3cccc3)s2)CC1)N1CCN(c2ncccn2)CC1
24 | 594 s | COc1ccc(NC(=O)N2CCN(c3cnn4c(C)nnc4c3)CC2)cc1
25 | 582 s | O=C(NC1CCCC1)C1CCN(C(=O)c2cc(-c3ccncc3)n[nH]2)CC1
26 | 798 s | Cc1ccc(-c2cn3c(CC(=O)NC4CCCC4)csc3n2)cc1C
27 | 901 s | CC1CCN(C(=O)CSc2nnc(-c3ccccc3F)o2)CC1
28 | 897 s | Cn1cccc1C(=O)N1CCC(COc2ccc(C(=O)N3CCCCC3)cc2)CC1
29 | 556 s | CN(C)C1(CC2CC2)CCN(C(=O)c2ccco2)CC1
30 | 708 s | CC(C)NC(=O)CSc1ccc(N2CCN(c3ccccc3)CC2)nn1
31 | 599 s | CN1CCC(NC(=O)C2CCN(C(=O)c3ncn4c3COC(c3ccc(F)cc3)C4)CC2)CC1 (stereo unspecified)
32 | 864 s | CCc1nnc(-c2ccc3ccn(CC(=O)N4CCN(c5cccc(OC)c5)CC4)c3c2)o1
33 | 1060 s | Cc1ccc(Cl)cc1N1CCN(C(=O)C2CCN(c3ncnc4c3oc3ccccc34)CC2)CC1
34 | 751 s | COc1cc(NC(=O)C2CCN(S(=O)(=O)c3cn(C(C)C)cn3)CC2)cc(OC)c1
35 | 863 s | Cc1ccc(NC(=O)N2CC(c3nc(CCOCC4CC4)no3)C2)cc1C
36 | 570 s | COCC(=O)N1CCN(c2nc(CN3CCC(C)CC3)cs2)CC1
